Results on one molecule are retold here after patent publication US11571567B2, “Iontophoresis device for drug delivery and method for manufacturing the same” (BIOSENSOR LABORATORIES INC., priority 2016, dated 2023).

Structures are written as SMILES.

The data set in a line: Drug delivery effect of the RED iontophoresis device through excised hairless mouse back skin (HPLC/LC-MS of stratum corneum and dermis). The format is in vitro ADME. The note with it: after 3 hours, FIG. 10. On the procedure:
FIG. 10 is a graph illustrating drug delivery effects of the iontophoresis device according to an embodiment. In order to confirm the drug delivery effects, the RED battery unit was prepared in the same manner as in preparation of the RED battery unit prepared for the measurement in FIG. 6, except that the number of chamber layers was 15, and a size of the chamber was 1 cm×0.8 cm. Also, 3M clectrically conductible adhesive tape (ECAT), which is conductive fabric, was used as an intermediate unit. The first material containing unit was prepared as follows. 2.5 wt % of 2-phospho I-ascorbic acid trisodium (VCP) (available from Sigma Aldrich, US) and 3 w/v % of Carbopol 940 were dissolved in 1×PBS having pH of 7.4. By titrating with 1 M HCl and 1 M NaOH, a pH of the first material containing unit including vitamin C (VCP) was adjusted to 7. This is a stable pH at which VCP exists in the ionized form. As a thickening agent used in preparation of a dosage form, Carbopol was prepared as a sol while controlling a pH using pH indicator paper (available from GE healthcare, UK). The resultant was sufficiently stirred by using a glass rod so that a material in the first material containing unit was homogenous after each titration process. […]

Regarding `O=C1O[C@H]([C@@H](O)CO)C(O)=C1OP(=O)(O)O.[Na+].[Na+].[Na+]` [VCP, 2-phospho I-ascorbic acid trisodium], the “drug remaining amount in the stratum corneum” value (control group (Ctrl): device with the same drug concentration, not activated by water, excised haireless mouse back skin) is “more drug remaining amount was found in the stratum corneum”. Also, the “vitamin C (VCP) delivered to the skin, i.e., dermis” value (experimental group (RED single): activated iontophoresis device, 15 chamber layers, 2.5 wt % VCP in Carbopol sol pH 7, excised haireless mouse (Sk-hr 1) back skin) is reported as “about 40%”.
